Laboratory results: the supplement of paper PMC10307832

How the values were obtained:
Test in all cases: relative viability (nuclei count vs DMSO), 5 days (fraction); higher = more cells survive
HCC-15 = test system: HCC-15
In short: (§1)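 After 5 days of treatment, lung cancer cells in 1536-well plates were fixed and stained in a single step (final 0.05% Triton X-100, 1% formaldehyde, 1 ug/ml Hoechst) and their nuclei counted on 4× images. Treatment had been applied by pin tool the day after seeding as one drug alone or as a fixed anchor-drug dose with five library-drug doses (not always all listed) in √10 steps. Relative viability is the nuclei count of treated wells divided by that of vehicle wells, and values are medians of duplicate plates.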

SK-LU-1 = test system: SK-LU-1
In short: as §1

NCI-H1993 = test system: NCI-H1993
In short: as §1

NCI-H1915 = test system: NCI-H1915
In short: as §1

PC-3 [JPC-3] = test system: PC-3 [JPC-3]
In short: as §1

NCI-H3122 = test system: NCI-H3122
In short: as §1

NCI-H596 = test system: NCI-H596
In short: as §1

EKVX = test system: EKVX
In short: as §1

RERF-LC-KJ = test system: RERF-LC-KJ
In short: as §1

HCC-827 = test system: HCC-827
In short: as §1

NCI-H1755 = test system: NCI-H1755
In short: as §1

COR-L 105 = test system: COR-L 105
In short: as §1

LC-2-ad = test system: LC-2-ad
In short: as §1

COR-L23 = test system: COR-L23
In short: as §1

LCLC-97TM1 = test system: LCLC-97TM1
In short: as §1

HCC-366 = test system: HCC-366
In short: as §1

NCI-H1944 = test system: NCI-H1944
In short: as §1

SK-MES-1 = test system: SK-MES-1
In short: as §1

BEN = test system: BEN
In short: as §1

LU99A = test system: LU99A
In short: as §1

Question: With COCC1(CO)C(=O)C2CCN1CC2 (stereo unspecified) [PRIMA-1MET] + C[C@]1(O)C[C@@H](c2nc(-c3ccc4ccc(-c5ccccc5)nc4c3)c3c(N)nccn32)C1 [Linsitinib] (partner 1 µM) as the compound, how does the relative viability (HCC-15; first compound 0.2 µM) read?
Answer: 0.893

Question: And the relative viability (HCC-15; first compound 0.6325 µM)?
Answer: 0.544

Question: What about the relative viability (HCC-15; first compound 2 µM) of the same compound?
Answer: 0.78

Question: And the relative viability (HCC-15; first compound 6.325 µM)?
Answer: 0.903

Question: And the relative viability (HCC-15; first compound 20 µM)?
Answer: 0.722

Question: What about the relative viability (SK-LU-1; first compound 0.2 µM) of the same compound?
Answer: 1.24

Question: What about the relative viability (SK-LU-1; first compound 0.6325 µM) of the same compound?
Answer: 1.03

Question: And the relative viability (SK-LU-1; first compound 2 µM)?
Answer: 1.14

Question: What about the relative viability (SK-LU-1; first compound 6.325 µM) of the same compound?
Answer: 1.06

Question: And the relative viability (SK-LU-1; first compound 20 µM)?
Answer: 0.458

Question: What about the relative viability (NCI-H1993; first compound 0.2 µM) of the same compound?
Answer: 0.708

Question: What about the relative viability (NCI-H1993; first compound 0.6325 µM) of the same compound?
Answer: 0.794

Question: What about the relative viability (NCI-H1993; first compound 2 µM) of the same compound?
Answer: 0.656

Question: What about the relative viability (NCI-H1993; first compound 6.325 µM) of the same compound?
Answer: 0.725

Question: What about the relative viability (NCI-H1993; first compound 20 µM) of the same compound?
Answer: 0.757

Question: What about the relative viability (NCI-H1915; first compound 0.2 µM) of the same compound?
Answer: 1.26

Question: What about the relative viability (NCI-H1915; first compound 0.6325 µM) of the same compound?
Answer: 0.933

Question: What about the relative viability (NCI-H1915; first compound 2 µM) of the same compound?
Answer: 1.03

Question: What about the relative viability (NCI-H1915; first compound 6.325 µM) of the same compound?
Answer: 1.11

Question: What about the relative viability (NCI-H1915; first compound 20 µM) of the same compound?
Answer: 1.08

Question: What about the relative viability (PC-3 [JPC-3]; first compound 0.2 µM) of the same compound?
Answer: 1

Question: And the relative viability (PC-3 [JPC-3]; first compound 0.6325 µM)?
Answer: 0.92

Question: And the relative viability (PC-3 [JPC-3]; first compound 2 µM)?
Answer: 0.979

Question: What about the relative viability (PC-3 [JPC-3]; first compound 6.325 µM) of the same compound?
Answer: 1.02

Question: And the relative viability (PC-3 [JPC-3]; first compound 20 µM)?
Answer: 0.91

Question: And the relative viability (NCI-H3122; first compound 0.2 µM)?
Answer: 0.853

Question: What about the relative viability (NCI-H3122; first compound 0.6325 µM) of the same compound?
Answer: 0.996

Question: And the relative viability (NCI-H3122; first compound 2 µM)?
Answer: 1.04

Question: And the relative viability (NCI-H3122; first compound 6.325 µM)?
Answer: 0.945

Question: What about the relative viability (NCI-H3122; first compound 20 µM) of the same compound?
Answer: 1.03

Question: And the relative viability (NCI-H596; first compound 0.2 µM)?
Answer: 1.29

Question: And the relative viability (NCI-H596; first compound 0.6325 µM)?
Answer: 0.894

Question: And the relative viability (NCI-H596; first compound 2 µM)?
Answer: 0.972

Question: What about the relative viability (NCI-H596; first compound 6.325 µM) of the same compound?
Answer: 1.09

Question: What about the relative viability (NCI-H596; first compound 20 µM) of the same compound?
Answer: 1.14

Question: And the relative viability (EKVX; first compound 0.2 µM)?
Answer: 0.999

Question: And the relative viability (EKVX; first compound 0.6325 µM)?
Answer: 0.912

Question: What about the relative viability (EKVX; first compound 2 µM) of the same compound?
Answer: 0.707

Question: And the relative viability (EKVX; first compound 6.325 µM)?
Answer: 1.03

Question: What about the relative viability (EKVX; first compound 20 µM) of the same compound?
Answer: 0.804

Question: What about the relative viability (RERF-LC-KJ; first compound 0.2 µM) of the same compound?
Answer: 0.961

Question: What about the relative viability (RERF-LC-KJ; first compound 0.6325 µM) of the same compound?
Answer: 0.955

Question: And the relative viability (RERF-LC-KJ; first compound 2 µM)?
Answer: 0.832

Question: What about the relative viability (RERF-LC-KJ; first compound 6.325 µM) of the same compound?
Answer: 0.922

Question: What about the relative viability (RERF-LC-KJ; first compound 20 µM) of the same compound?
Answer: 0.875

Question: And the relative viability (HCC-827; first compound 0.2 µM)?
Answer: 1.04

Question: What about the relative viability (HCC-827; first compound 0.6325 µM) of the same compound?
Answer: 0.884

Question: What about the relative viability (HCC-827; first compound 2 µM) of the same compound?
Answer: 0.698

Question: And the relative viability (HCC-827; first compound 6.325 µM)?
Answer: 0.962

Question: And the relative viability (HCC-827; first compound 20 µM)?
Answer: 0.906

Question: And the relative viability (NCI-H1755; first compound 0.2 µM)?
Answer: 0.979

Question: What about the relative viability (NCI-H1755; first compound 0.6325 µM) of the same compound?
Answer: 0.946

Question: And the relative viability (NCI-H1755; first compound 2 µM)?
Answer: 0.937

Question: What about the relative viability (NCI-H1755; first compound 6.325 µM) of the same compound?
Answer: 1.02

Question: What about the relative viability (NCI-H1755; first compound 20 µM) of the same compound?
Answer: 0.983

Question: And the relative viability (COR-L 105; first compound 0.2 µM)?
Answer: 0.943

Question: And the relative viability (COR-L 105; first compound 0.6325 µM)?
Answer: 0.815

Question: What about the relative viability (COR-L 105; first compound 2 µM) of the same compound?
Answer: 0.823

Question: What about the relative viability (COR-L 105; first compound 6.325 µM) of the same compound?
Answer: 0.859

Question: What about the relative viability (COR-L 105; first compound 20 µM) of the same compound?
Answer: 0.168

Question: And the relative viability (LC-2-ad; first compound 0.2 µM)?
Answer: 0.967

Question: And the relative viability (LC-2-ad; first compound 0.6325 µM)?
Answer: 0.843

Question: What about the relative viability (LC-2-ad; first compound 2 µM) of the same compound?
Answer: 0.754

Question: And the relative viability (LC-2-ad; first compound 6.325 µM)?
Answer: 0.858

Question: And the relative viability (LC-2-ad; first compound 20 µM)?
Answer: 0.598

Question: And the relative viability (COR-L23; first compound 0.2 µM)?
Answer: 0.94

Question: And the relative viability (COR-L23; first compound 0.6325 µM)?
Answer: 0.942

Question: And the relative viability (COR-L23; first compound 2 µM)?
Answer: 0.978

Question: What about the relative viability (COR-L23; first compound 6.325 µM) of the same compound?
Answer: 0.873

Question: What about the relative viability (COR-L23; first compound 20 µM) of the same compound?
Answer: 0.0228

Question: And the relative viability (LCLC-97TM1; first compound 0.2 µM)?
Answer: 0.213

Question: And the relative viability (LCLC-97TM1; first compound 2 µM)?
Answer: 0.183

Question: And the relative viability (LCLC-97TM1; first compound 6.325 µM)?
Answer: 0.199

Question: What about the relative viability (LCLC-97TM1; first compound 20 µM) of the same compound?
Answer: 0.117

Question: What about the relative viability (HCC-366; first compound 0.2 µM) of the same compound?
Answer: 0.773

Question: What about the relative viability (HCC-366; first compound 0.6325 µM) of the same compound?
Answer: 0.566

Question: What about the relative viability (HCC-366; first compound 6.325 µM) of the same compound?
Answer: 0.636

Question: What about the relative viability (HCC-366; first compound 20 µM) of the same compound?
Answer: 0.0588

Question: What about the relative viability (NCI-H1944; first compound 0.2 µM) of the same compound?
Answer: 1.27

Question: What about the relative viability (NCI-H1944; first compound 0.6325 µM) of the same compound?
Answer: 0.95

Question: What about the relative viability (NCI-H1944; first compound 6.325 µM) of the same compound?
Answer: 1.27

Question: What about the relative viability (NCI-H1944; first compound 20 µM) of the same compound?
Answer: 1.17

Question: And the relative viability (SK-MES-1; first compound 0.2 µM)?
Answer: 1.13

Question: What about the relative viability (SK-MES-1; first compound 0.6325 µM) of the same compound?
Answer: 1.04

Question: And the relative viability (SK-MES-1; first compound 2 µM)?
Answer: 1.02

Question: And the relative viability (SK-MES-1; first compound 6.325 µM)?
Answer: 1.05

Question: And the relative viability (SK-MES-1; first compound 20 µM)?
Answer: 1.11

Question: And the relative viability (BEN; first compound 0.2 µM)?
Answer: 1.04

Question: What about the relative viability (BEN; first compound 0.6325 µM) of the same compound?
Answer: 0.765

Question: What about the relative viability (BEN; first compound 6.325 µM) of the same compound?
Answer: 1.08

Question: What about the relative viability (BEN; first compound 20 µM) of the same compound?
Answer: 0.85

Question: What about the relative viability (LU99A; first compound 0.2 µM) of the same compound?
Answer: 0.629

Question: What about the relative viability (LU99A; first compound 0.6325 µM) of the same compound?
Answer: 0.439

Question: And the relative viability (LU99A; first compound 2 µM)?
Answer: 0.567

Question: And the relative viability (LU99A; first compound 6.325 µM)?
Answer: 0.526

Question: What about the relative viability (LU99A; first compound 20 µM) of the same compound?
Answer: 0.189
